Experimental data from ChEMBL document CHEMBL1681661, “Design of novel CXCR4 antagonists that are potent inhibitors of T-tropic (X4) HIV-1 replication” (Bioorg Med Chem Lett, 2011).

How the values were obtained:
[1] = system: Human immunodeficiency virus 1; experiment: Antiviral activity against X4 tropic HIV1 NL4.3 infected in CD4 and CXCR4 expressing human MT4 cells assessed as inhibition of viral cytopathicity; assay type: functional, organism-based; conditions: Human immunodeficiency virus 1, NL4.3, MT4
[2] = Cytotoxicity against human MT4 cells expressing CD4 and CXCR4 assessed as cell viability; assay type: cell-based
[3] = system: Human immunodeficiency virus 1; experiment: Antiviral activity against X4 tropic HIV1 NL4.3 infected in human PBMC assessed as inhibition of viral cytopathicity; assay type: functional, organism-based; conditions: Human immunodeficiency virus 1, NL4.3
[4] = system: Human immunodeficiency virus 1; experiment: Antiviral activity against X4 tropic HIV1 NL4.3 infected in human PBMC assessed as inhibition of viral cytopathicity in presence of 1 mg/ml of alpha-acid glycoprotein; assay type: functional
[5] = Cmax in rat; assay type: ADME, organism-based; conditions: in vivo
[6] = Cmax in dog; assay type: ADME, organism-based, Canis lupus familiaris; conditions: in vivo
[7] = AUC (0 to infinity) in rat; assay type: ADME, organism-based; parameters: time infinity; concentration or dose not given beside the values; conditions: plasma
[8] = AUC (0 to infinity) in dog; assay type: ADME, organism-based, Canis lupus familiaris; parameters: time infinity; concentration or dose not given beside the values; conditions: plasma
[9] = Oral bioavailability in rat at 100 umol/kg, […]; assay type: ADME, organism-based; conditions: in vivo
[10] = target: T1, C-X-C chemokine receptor type 4 (Homo sapiens, UniProt P61073); experiment: Displacement of [125I]SDF-1alpha from CXCR4 in human CEM-CCRF cells by liquid scintillation counting; assay type: cell-based
T1 sequence (P61073 whole entry): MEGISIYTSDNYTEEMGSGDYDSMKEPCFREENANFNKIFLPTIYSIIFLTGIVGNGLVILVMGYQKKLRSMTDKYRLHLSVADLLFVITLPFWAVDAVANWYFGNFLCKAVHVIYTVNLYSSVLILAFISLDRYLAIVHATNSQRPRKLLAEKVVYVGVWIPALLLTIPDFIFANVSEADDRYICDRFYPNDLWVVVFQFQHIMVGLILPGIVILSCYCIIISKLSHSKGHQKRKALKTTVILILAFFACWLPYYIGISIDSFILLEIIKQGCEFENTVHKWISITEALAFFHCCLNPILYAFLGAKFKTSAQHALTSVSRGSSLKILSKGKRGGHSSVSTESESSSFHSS

[11] = Clearance in rat at 10 umol/kg, iv; assay type: ADME, organism-based; conditions: in vivo
[12] = Clearance in dog at 5 umol/kg, iv; assay type: ADME, organism-based, Canis lupus familiaris; conditions: in vivo
[13] = Volume of distribution at steady state in rat at 10 umol/kg, iv; assay type: ADME, organism-based; conditions: in vivo, read-out: Vdss
[14] = Volume of distribution at steady state in dog at 5 umol/kg, iv; assay type: ADME, organism-based, Canis lupus familiaris; conditions: in vivo, read-out: Vdss
[15] = Half life in rat at 10 umol/kg, iv; assay type: ADME, organism-based; conditions: in vivo
[16] = Half life in dog at 5 umol/kg, iv; assay type: ADME, organism-based, Canis lupus familiaris; conditions: in vivo
[17] = Oral bioavailability in dog at 12.5 umol/kg; assay type: ADME, organism-based, Canis lupus familiaris; conditions: in vivo
[18] = target: T1, C-X-C chemokine receptor type 4; experiment: Antagonist activity at CXCR4 in human CEM-CCRF cells assessed as inhibition of SDF-1-induced calcium signaling; assay type: functional, cell-based

| IC50 [1] [nM] | Structure (SMILES) | CC50 [2] [nM] | also measured |
| --- | --- | --- | --- |
| 0.4 | NCCCCN(Cc1ncccc1Cl)C1CCCc2cccnc21 (stereo not given) | 191000 | – |
| 18 | CC(c1ccccn1)N(CCCCN)Cc1nc2ccccc2[nH]1 (stereo not given) | > 161000 | – |
| 874 | CCC(c1ccccn1)N(CCCCN)Cc1nc2ccccc2[nH]1 (stereo not given) | > 162000 | – |
| 16300 | CC(C)C(c1ccccn1)N(CCCCN)Cc1nc2ccccc2[nH]1 (stereo not given) | > 162000 | – |
| 13300 | NCCCCN(Cc1nc2ccccc2[nH]1)C(c1ccccc1)c1ccccn1 (stereo not given) | > 148000 | – |
| 2500 | CC(C)(c1ccccn1)N(CCCCN)Cc1nc2ccccc2[nH]1 | > 159000 | – |
| 41 | NCCCCN(Cc1ccccn1)Cc1nc2ccccc2[nH]1 | 151000 | – |
| > 149000 | NCCCCN(Cc1nc2ccccc2[nH]1)Cc1ncccc1O | > 149000 | – |
| 34 | CC(C)c1cccnc1CN(CCCCN)Cc1nc2ccccc2[nH]1 | 145000 | – |
| 505 | Cc1cccnc1C(C)N(CCCCN)Cc1nc2ccccc2[nH]1 (stereo not given) | > 146000 | – |
| 438 | Cc1ccnc(C(C)N(CCCCN)Cc2nc3ccccc3[nH]2)c1 (stereo not given) | > 142000 | – |
| 3.8 | Cc1ccc(C(C)N(CCCCN)Cc2nc3ccccc3[nH]2)nc1 (stereo not given) | > 146000 | – |
| 4100 | Cc1cccc(C(C)N(CCCCN)Cc2nc3ccccc3[nH]2)n1 (stereo not given) | > 167000 | – |
| 2290 | CC(c1cccc(N)n1)N(CCCCN)Cc1nc2ccccc2[nH]1 (stereo not given) | > 149000 | – |
| 1.1 | Cc1cccnc1CN(CCCCN)C(C)c1ccccn1 (stereo not given) | 45400 | – |
| 2.4 | Cc1cccc(CN(CCCCN)[C@H]2CCCc3cccnc32)n1 | – | IC50 [3]: 15.8 nM; fold change (FC) [4]: 0.6; Cmax [5]: 1460 nM; Cmax [6]: 2060 nM; AUC(0-inf) [7]: 8.75 µM·h; AUC(0-inf) [8]: 7.75 µM·h |
| 7.7 | Cc1cnc(CN(CCCCN)[C@H]2CCCc3cccnc32)c(C)c1 | – | bioavailability [9]: 42%; IC50 [10]: 62.9 nM; IC50 [3]: 3.6 nM; fold change (FC) [4]: 2.8; Cmax [5]: 2700 nM; Cmax [6]: 7160 nM; AUC(0-inf) [7]: 20.7 µM·h; AUC(0-inf) [8]: 22.1 µM·h; clearance [11]: 31.7 mL/min/kg; clearance [12]: 3.3 mL/min/kg; Vd [13]: 28.5 L/kg; Vd [14]: 8.7 L/kg; half-life [15]: 10.5 h; half-life [16]: 39.6 h; bioavailability [17]: 51% |
| 1.6 | NCCCCN(Cc1ncccc1N)[C@H]1CCCc2cccnc21 | – | IC50 [3]: 2.1 nM; fold change (FC) [4]: 4.3; Cmax [5]: 1660 nM; Cmax [6]: 7740 nM; AUC(0-inf) [7]: 8.73 µM·h; AUC(0-inf) [8]: 21.2 µM·h |
| 1.4 | C[C@@H](c1ccccn1)N(CCCCN)Cc1nc2ccccc2[nH]1 | – | IC50 [3]: 2 nM; fold change (FC) [4]: 5.4; Cmax [5]: 180 nM; Cmax [6]: 1330 nM; AUC(0-inf) [7]: 0.33 µM·h; AUC(0-inf) [8]: 1.7 µM·h |
| 1.1 | Cc1cccnc1CN(CCCCN)[C@@H](C)c1ccccn1 | – | IC50 [3]: 2.1 nM; fold change (FC) [4]: 14.2; Cmax [5]: 1580 nM; AUC(0-inf) [7]: 11.2 µM·h; AUC(0-inf) [8]: 7.49 µM·h |
| 15.3 | NCCCCN(Cc1ccccn1)C1CCCc2cccnc21 (racemic) | 165000 | – |

| IC50 [1] [nM] | Structure (SMILES) | CC50 [2] [nM] | also measured |
| --- | --- | --- | --- |
| 23.3 | Cc1cccnc1CN(CCCCN)C1CCCc2cccnc21 (racemic) | 32400 | – |
| 47.8 | Cc1ccnc(CN(CCCCN)C2CCCc3cccnc32)c1 (racemic) | 36900 | – |
| 5.3 | Cc1ccc(CN(CCCCN)C2CCCc3cccnc32)nc1 (racemic) | 35300 | IC50 [18]: 35 nM |
| 2.9 | Cc1cccc(CN(CCCCN)C2CCCc3cccnc32)n1 (racemic) | 299000 | – |
| 17 | Cc1cc(C)nc(CN(CCCCN)C2CCCc3cccnc32)c1 (racemic) | 149000 | – |
| 0.63 | Cc1cnc(CN(CCCCN)C2CCCc3cccnc32)c(C)c1 (racemic) | 32600 | IC50 [18]: 19 nM |
| 30 | NCCCCN(Cc1cccc(N)n1)C1CCCc2cccnc21 (racemic) | 158000 | – |
| 553 | COCc1cccc(CN(CCCCN)C2CCCc3cccnc32)n1 (racemic) | > 154000 | – |
| 113 | NCCCCN(Cc1ncccc1O)C1CCCc2cccnc21 (racemic) | 149000 | – |
| 19.7 | NCCCCN(Cc1ncccc1N)C1CCCc2cccnc21 (racemic) | 169000 | – |
| 8.4 | CC(C)c1cccnc1CN(CCCCN)C1CCCc2cccnc21 (racemic) | 33800 | – |
| 2.1 | NCCCCN(Cc1ncccc1CO)C1CCCc2cccnc21 (racemic) | 155000 | – |
| 18.4 | CC(c1ccccn1)N(CCCCN)Cc1ncccc1N (racemic) | 167000 | IC50 [18]: 72 nM |
| 39.1 | CC(c1ccccn1)N(CCCCN)Cc1ncccc1C(F)(F)F (racemic) | > 155000 | IC50 [18]: 111 nM |
| 1.6 | CC(c1ccccn1)N(CCCCN)Cc1ncccc1C(C)(C)C (racemic) | 158000 | – |
| 48.1 | Cc1ccc(CN(CCCCN)C(C)c2ccccn2)nc1 (racemic) | 158000 | – |
| 15 | Cc1cccc(CN(CCCCN)C(C)c2ccccn2)n1 (racemic) | > 145000 | IC50 [18]: 183 nM |
| 1.8 | Cc1cnc(CN(CCCCN)C(C)c2ccccn2)c(C)c1 (racemic) | 163000 | IC50 [18]: 20 nM |
| 0.3 | Cc1ccnc(C(C)N(CCCCN)Cc2ncccc2C)c1 (racemic) | 138000 | – |
| 4.8 | NCCCCN(Cc1nc2ccccc2[nH]1)[C@H]1CCCc2cccnc21 [MAVORIXAFOR] | – | – |
